Results reported in patent US8778966B2, “Quinolinone derivatives as PARP and tank inhibitors” (Janssen Pharmaceutica, NV, priority 2007, dated 2014).

Legend:
[1] = tested on: HCT116 cells; assay: Antiproliferative activity, Alamar Blue assay, HCT116 cells; assay type: cell-based, human; conditions: Homo sapiens, HCT-116, HCT116 cells, Alamar Blue; read-out: HCT116 antiproliferative activity pIC50 (converted)
How it was run: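 Readout is resazurin fluorescence (ex 540, em 590 nm) after a 4 h dye incubation at 37 °C, following 4-day compound treatment of HCT116 cells plated 24 h earlier. Results expressed as % viable cells versus untreated; pIC50 derived from probit-fitted IC50.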

[2] = tested on: PC-3 cells; assay: Antiproliferative activity, Alamar Blue assay, PC-3 cells; assay type: cell-based, human; conditions: Homo sapiens, PC-3, PC3 cells, Alamar Blue; read-out: PC3 antiproliferative activity pIC50 (converted)
How it was run: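 Resazurin-based fluorescence (540 nm ex/590 nm em) measured after 4-day compound treatment plus 24 hrs dye incubation at 37° C. Cells plated at 4.5×10^3 cells/ml, adhered 24 hr first. pIC50 from probit-derived IC50 on % viable cells versus untreated, triplicate wells.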

| Structure (SMILES) | IC50 [1] | IC50 [2] |
| --- | --- | --- |
| Cc1cc2ccc(C(C)(C#N)Cc3cc4ccccc4[nH]3)cc2[nH]c1=O (centres unmarked) [Compound 234] | 5010 nM | 10000 nM |
| CCc1cc2ccc(C(C)(C#N)Cc3ccc(F)c(C#N)c3)cc2[nH]c1=O (centres unmarked) [Compound 267] | 200 nM | 501 nM |
| CCc1cc2ccc(C(C)(C#N)CCOc3ccccc3C#N)cc2[nH]c1=O (centres unmarked) [Compound 276] | 1580 nM | 2510 nM |
| CCc1cc2ccc(C(C)(C#N)CCOc3cc(Cl)c(Cl)cc3Cl)cc2[nH]c1=O (centres unmarked) [Compound 277] | 501 nM | 501 nM |

The next lines start with the values.

| IC50 [1] | IC50 [2] | Structure (SMILES) |
| --- | --- | --- |
| 1580 nM | 2000 nM | CCc1cc2ccc(C(C)(C#N)CCOc3ccccc3F)cc2[nH]c1=O (centres unmarked) [Compound 278] |
| 1260 nM | 1580 nM | CCc1cc2ccc(C(C)(C#N)CCOc3ccc4c(c3)OCO4)cc2[nH]c1=O (centres unmarked) [Compound 279] |
| 100 nM | 251 nM | CCc1cc2ccc(C(C)(C#N)Cc3cc(OC)cc(OC)c3)cc2[nH]c1=O (centres unmarked) [Compound 332] |
